Experimental data from patent US20230174538A1, “Tricyclic heterocycles” (Merck Patent GmbH, priority 2020, published 2023).

These compounds were tested on YAP-TEAD interaction (assay: SK-HEP-1 reporter assay (8xTEAD responsive elements driving NanoLuc luciferase)). Details: Homo sapiens, SK-HEP1, SK-HEP-1 reporter assay.
Format: cell-based
Procedure: To identify inhibitors of YAP-TEAD interaction, 8×TEAD responsive elements driving the NanoLuc® luciferase gene were stably integrated into SK-HEP-1 cells (ECACC #: 91091816).
For the assay, cells were treated in duplicates with the test compounds in a 10-point dose, with the top concentration starting at 30 μM (final concentration in assay). After a 24 hour incubation at 37° C., 95% rH, and 5% CO2, a luciferase substrate/lysis reagent mix (NanoGlo™, Promega) was added to the cells, allowing the quantification of cellular luciferase activity.
Cell Media: The cells were cultured in the following media: MEM, +10% FBS, +1× GlutaMAX, +1 mM Sodium-Pyruvate, +100 μM Non-essential amino acids, +0.1 mg/ml Hygromycin. The media used for the assay was: MEM (w/o Phenol Red), +10% FBS, +1× GlutaMAX, +1 mM Sodium-Pyruvate, +100 μM Non-essential amino acids, +0.5% Pen/Strep
Reagents: The reagents used are listed below:
Cell culture: The cells were examined using an inverted microscope to check for health and cell density. To dissociate adherent cells, the monolayer of cells was washed once with pre-warmed PBS. After removing the PBS, 3 ml pre-warmed Accutase® was added to a F75 flask, dispersed evenly and the flask was allowed to sit in incubator for ˜4-5 minutes.
When a single cell suspension was obtained, 7 ml of prewarmed growth media was added and resuspended with the cells. The cell suspension was transferred to a sterile 15 ml conical centrifuge tube, and spun for 5 min at 300×g, RT. The supernatant was discarded and the pellet was resuspended in 10 ml of pre-warmed growth media.
The total cell count was determined, and 20 μl of the desired cell number was added to each well of a 384 well plate using a Multidrop Combi. The plates were then incubated for 24 hours at 37° C., 95% rH, and 5% CO2.
Compound treatment: 24 hours after seeding, the cells were treated with compounds.
A 1:333 dilution of compounds, diluted in DMSO, was made to get a final concentration of 0.3% DMSO per well. To transfer the compounds to the assay plate, 120 nl was shot from Labcyte low dead volume plates to the cell plates containing 20 μl media/well with the ECHO 555 liquid handling system.
After treatment, the cells were fed with 20 μl fresh pre-warmed assay media using a Multidrop combi.
The assay plates were then incubated for another 24 h at 37° C., 95% rH, and 5% CO2.
Luciferase readout: 24 h after treatment, the plates were taken out of the incubator and were allowed to equilibrate to RT. 30 μl of NanoGlo® reagent was added to the plates in the dark. Plates were shaken for 20 min on a Teleshake (˜1500 rpm) in the dark. The luminescence was then measured using an EnVision microplate reader. The IC50 values were generated using Genedata Screener®.

Structure (SMILES) | IC50 [nM]
Cn1cc2c3cc(C(=O)O)ccc3n(-c3cccc(F)c3)c2n1 [Example 7, 8-(3-fluorophenyl)-2-methyl-2H,8H-pyrazolo[3,4-b]indole-5-carboxylic acid] | 10 to 100
Cc1nccc(C2(NC(=O)c3ccc4c(c3)c3cn(C)nc3n4-c3ccc(C(F)(F)F)cc3)CC2)n1 [Example B69, 2-methyl-N-[1-(2-methylpyrimidin-4-yl)cyclopropyl]-8-[4-(trifluoromethyl)phenyl]-2H,8H-pyrazolo[3,4-b]indole-5-carboxamide] | > 10000
CC(NC(=O)c1ccc2c(c1)c1cn(C)nc1n2-c1ccc(C(F)(F)F)cc1)c1cnn(C2CC2)c1 (stereo not drawn) [B109^] | > 10000
Cn1cc2c3cc(C(=O)NC4(c5ccncc5F)CC4)ccc3n(-c3ccc(C(F)(F)F)cc3)c2n1 [B127^] | 100 to 10000
Cn1cc2c3cc(C(=O)NCCc4cc(C5CC5)on4)ccc3n(-c3ccc(C(F)(F)F)cc3)c2n1 [Example B95, N-[2-(5-cyclopropyl-1,2-oxazol-3-yl)ethyl]-2-methyl-8-[4-(trifluoromethyl)phenyl]-2H,8H-pyrazolo[3,4-b]indole-5-carboxamide] | 100 to 10000
Cn1cc2c3cc(C(=O)NCC4(N5CCOCC5)CC4)ccc3n(-c3ccc(C(F)(F)F)cc3)c2n1 [Example B42, 2-methyl-N-{[1-(morpholin-4-yl)cyclopropyl]methyl}-8-[4-(trifluoromethyl)phenyl]-2H,8H-pyrazolo[3,4-b]indole-5-carboxamide] | 100 to 10000
O=C(O)c1ccc2c(c1)c1cn(Cc3ccccc3)cc1n2-c1ccccc1 [Example 3, 2-Benzyl-4-phenyl-2H,4H-pyrrolo[3,4-b]indole-7-carboxylic acid] | 1 to 10
Cn1cc2c3cc(C(=O)O)ccc3n(-c3ccc(Cl)cc3)c2n1 [Example 13, 8-(4-chlorophenyl)-2-methyl-2H,8H-pyrazolo[3,4-b]indole-5-carboxylic acid] | 100 to 10000
CCn1ncc(CNC(=O)c2ccc3c(c2)c2cn(C)nc2n3-c2ccc(C(F)(F)F)cc2)c1F [B119^] | > 10000
Cn1cc2c3cc(C(=O)NC4COCC4C4CC4)ccc3n(-c3ccc(C(F)(F)F)cc3)c2n1 (stereo not drawn) [B133^] | 10 to 100
CN(C)c1noc(CCNC(=O)c2ccc3c(c2)c2cn(C)nc2n3-c2ccc(C(F)(F)F)cc2)n1 [B120^] | 100 to 10000
Cc1nc(CNC(=O)c2ccc3c(c2)c2cn(C)nc2n3-c2ccc(C(F)(F)F)cc2)n[nH]1 [B144^] | 10 to 100
CC1COC(CO)CN1C(=O)c1ccc2c(c1)c1cn(C)nc1n2-c1ccc(C(F)(F)F)cc1 (stereo not drawn) [Example B72, (5-methyl-4-{2-methyl-8-[4-(trifluoromethyl)phenyl]-2H,8H-pyrazolo[3,4-b]indole-5-carbonyl}morpholin-2-yl)methanol] | 100 to 10000
CCn1cc(CCNC(=O)c2ccc3c(c2)c2cn(C)nc2n3-c2ccc(C(F)(F)F)cc2)nn1 [B105^] | 100 to 10000
Cc1oc(C2CC2)nc1CNC(=O)c1ccc2c(c1)c1cn(C)nc1n2-c1ccc(C(F)(F)F)cc1 [Example B85, N-[(2-cyclopropyl-5-methyl-1,3-oxazol-4-yl)methyl]-2-methyl-8-[4-(trifluoromethyl)phenyl]-2H,8H-pyrazolo[3,4-b]indole-5-carboxamide] | 1 to 10
CCC(NC(=O)c1ccc2c(c1)c1cn(C)nc1n2-c1ccc(C(F)(F)F)cc1)c1ncc[nH]1 (stereo not drawn) [Example B7, N-[1-(1H-imidazol-2-yl)propyl]-2-methyl-8-[4-(trifluoromethyl)phenyl]-2H,8H-pyrazolo[3,4-b]indole-5-carboxamide] | > 10000
CN(Cc1c[nH]cn1)C(=O)c1ccc2c(c1)c1cn(C)nc1n2-c1ccc(C(F)(F)F)cc1 [Example B50, N-[(1H-imidazol-4-yl)methyl]-N,2-dimethyl-8-[4-(trifluoromethyl)phenyl]-2H,8H-pyrazolo[3,4-b]indole-5-carboxamide] | 100 to 10000
Cn1cc2c3cc(C(=O)N4CCC(O)(c5c[nH]nn5)C4)ccc3n(-c3ccc(C(F)(F)F)cc3)c2n1 (stereo not drawn) [Example B74, 1-(2-methyl-8-[4-(trifluoromethyl)phenyl]-2H,8H-pyrazolo[3,4-b]indole-5-carbonyl}-3-(1H-1,2,3-triazol-4-yl)pyrrolidin-3-ol] | 100 to 10000
Cn1cc2c3cc(C(=O)NCc4cc(C5CCC5)n[nH]4)ccc3n(-c3ccc(C(F)(F)F)cc3)c2n1 [Example B17, N-[(3-cyclobutyl-1H-pyrazol-5-yl)methyl]-2-methyl-8-[4-(trifluoro-methyl)phenyl]-2H,8H-pyrazolo[3,4-b]indole-5-carboxamide] | 100 to 10000
Cn1cc2c3cc(C(=O)NCC4=CCOCC4)ccc3n(-c3ccc(C(F)(F)F)cc3)c2n1 [Example B58, N-[(3,6-dihydro-2H-pyran-4-yl)methyl]-2-methyl-8-[4-(trifluoromethyl)phenyl]-2H,8H-pyrazolo[3,4-b]indole-5-carboxamide] | 1 to 10
Cn1cc2c3cc(C(=O)N4CCn5nccc5C4CO)ccc3n(-c3ccc(C(F)(F)F)cc3)c2n1 (stereo not drawn) [Example B40] | > 10000
O=C(O)c1ccc2c(c1)c1cn(Cc3ccccc3)cc1n2S(=O)(=O)c1ccccc1 [Example 1, 4-(benzenesulfonyl)-2-benzyl-2H,4H-pyrrolo[3,4-b]indole-7-carboxylic acid] | 100 to 10000
Cn1cc2c3cc(C(=O)N4CC(O)(Cc5ccn[nH]5)C4)ccc3n(-c3ccc(C(F)(F)F)cc3)c2n1 [Example B47, 1-{2-methyl-8-[4-(trifluoromethyl)-phenyl]-2H,8H-pyrazolo[3,4-b]indole-5-carbonyl}-3-[(1H-pyrazol-5-yl)methyl]azetidin-3-ol] | 100 to 10000
Cn1cc2c3cc(NC(=O)CCl)ccc3n(-c3ccc(C(F)(F)F)cc3)c2n1 [Example 23, 2-chloro-N-[2-methyl-8-[4-(trifluoromethyl)phenyl]pyrazolo[3,4-b]indol-5-yl]acetamide] | > 10000
COCC1CCN(C(=O)c2ccc3c(c2)c2cn(C)nc2n3-c2ccc(C(F)(F)F)cc2)C1 (stereo not drawn) [Example B51, 3-(methoxymethyl)-1-{2-methyl-8-[4-(trifluoromethyl)phenyl]-2H,8H-pyrazolo[3,4-b]indole-5-carbonyl}pyrrolidine] | 100 to 10000
Cc1[nH]cnc1CNC(=O)c1ccc2c(c1)c1cn(C)nc1n2-c1ccc(C(F)(F)F)cc1 [Example B46, 2-methyl-N-[(5-methyl-1H-imidazol-4-yl)methyl]-8-[4-(trifluoromethyl)phenyl]-2H,8H-pyrazolo[3,4-b]indole-5-carboxamide] | 100 to 10000
Cn1cc2c3cc(C(=O)NCCn4cnnc4C4CC4)ccc3n(-c3ccc(C(F)(F)F)cc3)c2n1 [Example B98, N-[2-(3-cyclopropyl-4H-1,2,4-triazol-4-yl)ethyl]-2-methyl-8-[4-(trifluoromethyl)phenyl]-2H,8H-pyrazolo[3,4-b]indole-5-carboxamide] | 100 to 10000
Cn1cc2c3cc(C(=O)O)ccc3n(Cc3cccc(C(F)(F)F)c3)c2n1 [Example 8, 2-Methyl-8-{[3-(trifluoromethyl)phenyl]methyl}-2H,8H-pyrazolo[3,4-b]indole-5-carboxylic acid] | 100 to 10000
Cn1cc2c3cc(C(=O)N4CCCC4c4ncc[nH]4)ccc3n(-c3ccc(C(F)(F)F)cc3)c2n1 (stereo not drawn) [Example B52, 2-(1-{2-methyl-8-[4-(trifluoromethyl)phenyl]-2H,8H-pyrazolo[3,4-b]indole-5-carbonyl}pyrrolidin-2-yl)-1H-imidazole] | > 10000
Cc1c[nH]c(C(NC(=O)c2ccc3c(c2)c2cn(C)nc2n3-c2ccc(C(F)(F)F)cc2)C2CC2)n1 (stereo not drawn) [B145^] | > 10000
